Assay results: patent US4179441A, “Fungidal and herbicidal 2-substituted-3-oxa-3aλ^4, 4-dithia-6-halo-1,5-diazapentalene” (Chevron Research Company, priority 1977, dated 1979)
Where two headings read alike, the source gives them in different places.

How the values were obtained:
Pythium ultimum = assay: Mycelia Inhibition; assay type: cell-based; settings: mycelial inhibition, 25° C., 24 hours
Aspergillus niger = assay: Mycelia Inhibition; assay type: cell-based; settings: mycelial inhibition, 25° C., 24 hours
Phytophthora infestans = assay: whole plant or invertebrate; assay type: in vivo; settings: in Solanum lycopersicum, 168 h, read-out: Tomato Late Blight % Control
Fusarium moniliforme = assay: Mycelia Inhibition; assay type: cell-based; settings: mycelial inhibition, 25° C., 24 hours
Rhizoctonia solani = assay: Mycelia Inhibition; assay type: cell-based; settings: mycelial inhibition, 25° C., 24 hours
Alternaria solani = assay: Tomato Early Blight; assay type: in vivo; settings: 288 h, read-out: Tomato Early blight % Control
Erysiphe polygoni = assay: Powdery Mildew (bean seedlings); assay type: in vivo; settings: 240 h, 250 ppm spray on bean seedlings, about 10 days, relative to untreated check plants
From the text: The powdery mildew test was made using bean seedlings (var. Bountiful) with well-developed primary leaves. The pathogen was Erysiphe polygoni. The bean seedlings were sprayed with a 250 ppm solution of the test compound in an acetone-water mixture containing a nonionic emulsifier. The treated plants were inoculated one day after spray application of the test compound with the pathogen. […] The rate of infection on the leaves was made after about 10 days. The percent disease control provided by a given test compound was based on the disease reduction relative to untreated check plants.

Botrytis cinerea = Botrytis cinerea control (detached horsebean leaves); assay type: in vivo; settings: 3 to 5 days
Method: Compounds of the invention were tested for Botrytis cinerea control using detached, well-developed primary leaves of a 4-6 week old horsebean plant. […] The leaves were allowed to dry while the filter paper was kept moist by adding water as required. The treated leaves were then inoculated with the spores of Botrytis cinerea fungus grown on potato. The plate was covered after inoculation and kept at 23.5° C. The filter-paper lining of the plate was kept saturated with water throughout the test. The rate of disease incidence was determined in 3 to 5 days, when the disease symptoms were fully evident on non-treated check leaves. […]

[1] = test system: Watergrass (Echinochloa crusgalli); assay: Post-emergent herbicidal test; assay type: in vivo; settings: 0-to-100 scale
Wild Oats (Avena fatua) [2] = assay: Post-emergent herbicidal test; assay type: in vivo; settings: 0-to-100 scale
Wild Oats (Avena fatua) [3] = assay: Pre-Emergent herbicidal test; assay type: in vivo; settings: 33 micrograms/cm^2, 3 weeks, 0-to-100 scale, 100 = complete kill
Method: (§1) Pre-emergent herbicidal tests on representative compounds of the invention were made using the following method:
(§2) An acetone solution of the test compound was prepared by mixing 750 mg of the compound, 220 mg of a nonionic surfactant and 25 ml of acetone. This solution was added to approximately 125 ml of water containing 156 mg of surfactant.
(§3) Seeds of the test vegetation were planted in a pot of soil and the test solution was sprayed uniformly onto the soil surface at a dose of 33 micrograms/cm^2. The pot was watered and placed in a greenhouse. […] At the end of this period, the herbicidal effectiveness of the compound was rated based on the physiological observations. A 0-to-100 scale was used, 0 representing no phytotoxicity, 100 representing complete kill.

[4] = test system: Watergrass (Echinochloa crusgalli); assay: Pre-Emergent herbicidal test; assay type: in vivo; settings: 33 micrograms/cm^2, 3 weeks, 0-to-100 scale, 100 = complete kill
Method: as §1, §2, §3

[5] = test system: Crabgrass (Digitaria sanguinalis); assay: Pre-Emergent herbicidal test; assay type: in vivo; settings: 33 micrograms/cm^2, 3 weeks, 0-to-100 scale, 100 = complete kill
Method: as §1, §2, §3

[6] = test system: Lambsquarter (Chenopodium album); assay: Pre-Emergent herbicidal test; assay type: in vivo; settings: 33 micrograms/cm^2, 3 weeks, 0-to-100 scale, 100 = complete kill
Method: as §1, §2, §3

[7] = test system: Mustard (Brassica arvensis); assay: Pre-Emergent herbicidal test; assay type: in vivo; settings: 33 micrograms/cm^2, 3 weeks, 0-to-100 scale, 100 = complete kill
Method: as §1, §2, §3

[8] = test system: Mustard (Brassica arvensis); assay: Post-emergent herbicidal test; assay type: in vivo; settings: 0-to-100 scale
[9] = test system: Crabgrass (Digitaria sanguinalis); assay: Post-emergent herbicidal test; assay type: in vivo; settings: 0-to-100 scale
[10] = test system: Lambsquarter (Chenopodium album); assay: Post-emergent herbicidal test; assay type: in vivo; settings: 0-to-100 scale
[11] = 250 ppm spray, inoculated one day later, based on untreated check plants

ClC1=NSS2=C1N=C(CSc1ccc(Cl)cc1)O2 (centres unmarked) [Compound 10, 2-(4-chlorophenylthio-methyl)-3-oxa-3aλ^4,4-dithia-6-chloro-1,5-diazapentalene]
Pythium ultimum, micrograms/cm^2 for 99% control of the fungus (Pythium ultimum): > 1.7 micrograms/cm^2 | Aspergillus niger, micrograms/cm^2 for 99% control of the fungus (Aspergillus niger): 0.52 micrograms/cm^2 | pest or weed control at 250 ppm (Phytophthora infestans): 81% | Fusarium moniliforme, micrograms/cm^2 for 99% control of the fungus (Fusarium moniliforme): > 1.7 micrograms/cm^2 | Rhizoctonia solani, micrograms/cm^2 for 99% control of the fungus (Rhizoctonia solani): 1.2 micrograms/cm^2

Oc1ccccc1C1=NC2=S(O1)SN=C2Cl (centres unmarked) [Compound 13]
pest or weed control at 250 ppm (Alternaria solani; [11]): 51% | Pythium ultimum, micrograms/cm^2 for 99% control of the fungus (Pythium ultimum): > 1.7 micrograms/cm^2 | Aspergillus niger, micrograms/cm^2 for 99% control of the fungus (Aspergillus niger): 0.98 micrograms/cm^2 | pest or weed control at 250 ppm (Phytophthora infestans): 27% | Fusarium moniliforme, micrograms/cm^2 for 99% control of the fungus (Fusarium moniliforme): > 1.7 micrograms/cm^2 | Rhizoctonia solani, micrograms/cm^2 for 99% control of the fungus (Rhizoctonia solani): 0.5 micrograms/cm^2

ClC1=NSS2=C1N=C(c1ccccc1I)O2 (centres unmarked) [Compound 28]
pest or weed control at 250 ppm (Phytophthora infestans): 75% | pest or weed control at 250 ppm (Erysiphe polygoni): 69%

O=[N+]([O-])c1ccc(Cl)cc1C1=NC2=S(O1)SN=C2Cl (centres unmarked) [Compound 17]
pest or weed control at 250 ppm (Phytophthora infestans): 80%

N#CSCC1=NC2=S(O1)SN=C2Cl (centres unmarked) [Compound 20, 2-thiocyanatomethyl-3-oxa-3aλ^4,4-dithia-6-chloro-1,5-diazapentalene]
Aspergillus niger, micrograms/cm^2 for 99% control of the fungus (Aspergillus niger): 0.6 micrograms/cm^2 | Fusarium moniliforme, micrograms/cm^2 for 99% control of the fungus (Fusarium moniliforme): > 1.7 micrograms/cm^2 | Botrytis Cinerea, micrograms/cm^2 for 99% control of the fungus (Botrytis cinerea): 0.88 micrograms/cm^2 | Rhizoctonia solani, micrograms/cm^2 for 99% control of the fungus (Rhizoctonia solani): 0.33 micrograms/cm^2

ClC1=NSS2=C1N=C(COc1cc(Cl)ccc1Cl)O2 (centres unmarked) [Compound 27]
Herbicidal Effectiveness - Post, W [1]: 0 | Herbicidal Effectiveness - Post, O (Wild Oats (Avena fatua) [2]): 0 | Herbicidal Effectiveness - Pre, O (Wild Oats (Avena fatua) [3]): 0 | Herbicidal Effectiveness - Pre, W [4]: 55 | Herbicidal Effectiveness - Pre, C [5]: 55 | Herbicidal Effectiveness - Pre, L [6]: 82 | Herbicidal Effectiveness - Pre, M [7]: 87 | Herbicidal Effectiveness - Post, M [8]: 80 | Herbicidal Effectiveness - Post, C [9]: 90 | Herbicidal Effectiveness - Post, L [10]: 90

O=[N+]([O-])c1ccc(C2=NC3=S(O2)SN=C3Cl)cc1 (centres unmarked) [Compound 7]
pest or weed control at 250 ppm (Alternaria solani; [11]): 23% | pest or weed control at 250 ppm (Phytophthora infestans): 90%

Fc1ccccc1C1=NC2=S(O1)SN=C2Cl (centres unmarked) [Compound 2]
pest or weed control at 250 ppm (Phytophthora infestans): 93% | pest or weed control at 250 ppm (Erysiphe polygoni): 35% | Botrytis Cinerea, micrograms/cm^2 for 99% control of the fungus (Botrytis cinerea): 1.6 micrograms/cm^2

ClC1=NSS2=C1N=C(c1ccccc1)O2 (centres unmarked) [Compound 6]
pest or weed control at 250 ppm (Alternaria solani): 75% | pest or weed control at 250 ppm (Phytophthora infestans): 93% | pest or weed control at 250 ppm (Erysiphe polygoni): 100%

ClC1=NSS2=C1N=C(COc1ccc(Cl)cc1)O2 (centres unmarked) [Compound 25]
pest or weed control at 250 ppm (Alternaria solani): 88% | Herbicidal Effectiveness - Post, W [1]: 0 | Herbicidal Effectiveness - Post, O (Wild Oats (Avena fatua) [2]): 0 | Herbicidal Effectiveness - Pre, O (Wild Oats (Avena fatua) [3]): 0 | Herbicidal Effectiveness - Pre, W [4]: 20 | Herbicidal Effectiveness - Pre, C [5]: 70 | Herbicidal Effectiveness - Pre, L [6]: 90 | Herbicidal Effectiveness - Pre, M [7]: 95 | Herbicidal Effectiveness - Post, M [8]: 85 | Herbicidal Effectiveness - Post, C [9]: 0 | pest or weed control at 250 ppm (Erysiphe polygoni): 29% | Herbicidal Effectiveness - Post, L [10]: 85

ClC1=NSS2=C1N=C(C1CC1)O2 (centres unmarked) [Compound 21, 2-cyclopropyl-3-oxa-3aλ^4,4-dithia-6-chloro-1,5-diazapentalene]
pest or weed control at 250 ppm (Alternaria solani; [11]): 23% | pest or weed control at 250 ppm (Phytophthora infestans): 97%

ClCC1=NC2=S(O1)SN=C2Cl (centres unmarked) [Compound 5, 2-chloromethyl-3-oxa-3aλ^4,4-dithia-6chloro-1,5-diazapentalene]
pest or weed control at 250 ppm (Alternaria solani; [11]): 73% | Pythium ultimum, micrograms/cm^2 for 99% control of the fungus (Pythium ultimum): 0.12 micrograms/cm^2 | Aspergillus niger, micrograms/cm^2 for 99% control of the fungus (Aspergillus niger): 1.1 micrograms/cm^2 | pest or weed control at 250 ppm (Phytophthora infestans): 81% | Fusarium moniliforme, micrograms/cm^2 for 99% control of the fungus (Fusarium moniliforme): > 1.7 micrograms/cm^2 | Rhizoctonia solani, micrograms/cm^2 for 99% control of the fungus (Rhizoctonia solani): 0.38 micrograms/cm^2

ClC1=NSS2=C1N=C(c1ccc(Cl)cc1)O2 (centres unmarked) [Compound 3]
pest or weed control at 250 ppm (Phytophthora infestans): 98% | pest or weed control at 250 ppm (Erysiphe polygoni): 76% | Botrytis Cinerea, micrograms/cm^2 for 99% control of the fungus (Botrytis cinerea): 1.1 micrograms/cm^2

ClC1=NSS2=C1N=C(c1ccco1)O2 (centres unmarked) [Compound 8, 2-(2-furyl)-3-oxa-3aλ^4,4-dithia-6-chloro-1,5-diazapentalene]
pest or weed control at 250 ppm (Alternaria solani; [11]): 56% | Pythium ultimum, micrograms/cm^2 for 99% control of the fungus (Pythium ultimum): 0.29 micrograms/cm^2 | Aspergillus niger, micrograms/cm^2 for 99% control of the fungus (Aspergillus niger): 0.49 micrograms/cm^2 | Fusarium moniliforme, micrograms/cm^2 for 99% control of the fungus (Fusarium moniliforme): 0.95 micrograms/cm^2 | Botrytis Cinerea, micrograms/cm^2 for 99% control of the fungus (Botrytis cinerea): 0.15 micrograms/cm^2 | Rhizoctonia solani, micrograms/cm^2 for 99% control of the fungus (Rhizoctonia solani): 0.34 micrograms/cm^2

ClC1=NSS2=C1N=C(C(Cl)=C(Cl)Cl)O2 (centres unmarked) [Compound 23, 2-trichlorovinyl-3-oxa-3aλ^4,4-dithia-6-chloro-1,5-diazapentalene]
pest or weed control at 250 ppm (Phytophthora infestans): 98% | pest or weed control at 250 ppm (Erysiphe polygoni): 95%

ClC1=NSS2=C1N=C(c1c(Cl)cccc1Cl)O2 (centres unmarked) [Compound 15]
Botrytis Cinerea, micrograms/cm^2 for 99% control of the fungus (Botrytis cinerea): 1.6 micrograms/cm^2

ClC1=NSS2=C1N=C(c1cccs1)O2 (centres unmarked) [Compound 12]
pest or weed control at 250 ppm (Alternaria solani; [11]): 68% | Pythium ultimum, micrograms/cm^2 for 99% control of the fungus (Pythium ultimum): > 1.7 micrograms/cm^2 | Aspergillus niger, micrograms/cm^2 for 99% control of the fungus (Aspergillus niger): 1.2 micrograms/cm^2 | pest or weed control at 250 ppm (Phytophthora infestans): 89% | Fusarium moniliforme, micrograms/cm^2 for 99% control of the fungus (Fusarium moniliforme): > 1.7 micrograms/cm^2 | pest or weed control at 250 ppm (Erysiphe polygoni): 54% | Botrytis Cinerea, micrograms/cm^2 for 99% control of the fungus (Botrytis cinerea): 1.4 micrograms/cm^2 | Rhizoctonia solani, micrograms/cm^2 for 99% control of the fungus (Rhizoctonia solani): 0.5 micrograms/cm^2

ClC1=NSS2=C1N=C(c1cc(Cl)cc(Cl)c1)O2 (centres unmarked) [Compound 16]
pest or weed control at 250 ppm (Erysiphe polygoni): 23%

N#CSc1cccc(C2=NC3=S(O2)SN=C3Cl)c1 (centres unmarked) [Compound 22]
pest or weed control at 250 ppm (Erysiphe polygoni): 35%

ClC1=NSS2=C1N=C(CSCc1ccc(Cl)cc1)O2 (centres unmarked) [Compound 11]
Pythium ultimum, micrograms/cm^2 for 99% control of the fungus (Pythium ultimum): > 1.7 micrograms/cm^2 | Aspergillus niger, micrograms/cm^2 for 99% control of the fungus (Aspergillus niger): 0.46 micrograms/cm^2 | pest or weed control at 250 ppm (Phytophthora infestans): 93% | Fusarium moniliforme, micrograms/cm^2 for 99% control of the fungus (Fusarium moniliforme): > 1.7 micrograms/cm^2 | Rhizoctonia solani, micrograms/cm^2 for 99% control of the fungus (Rhizoctonia solani): 0.5 micrograms/cm^2

ClC1=NSS2=C1N=C(c1ccc(Cl)c(Cl)c1)O2 (centres unmarked) [Compound 1]
pest or weed control at 250 ppm (Alternaria solani; [11]): 39% | pest or weed control at 250 ppm (Phytophthora infestans): 60%

ClC1=NSS2=C1N=C(C(Cl)(Cl)Cl)O2 (centres unmarked) [Compound 14]
pest or weed control at 250 ppm (Alternaria solani; [11]): 21%
